Measurements reported in paper PMC4900628, “Critical Evaluation of P2X7 Receptor Antagonists in Selected Seizure Models” (PLoS ONE, 2016).

Experiments:
mouse P2X7R = biological target: T1, mouse P2X7R (Mus musculus, UniProt Q9Z1M0); experiment: fluorometric Ca2+ assay (ATP-induced [Ca2+]i response) in HEKmP2X7 cells; assay type: cell-based; conditions: fluo-4, 1 mM ATP, read-out: Potency IC50 ± SEM, Mouse P2X7R
T1 construct: expressed in transfected cells
T1 sequence (Q9Z1M0 1-595): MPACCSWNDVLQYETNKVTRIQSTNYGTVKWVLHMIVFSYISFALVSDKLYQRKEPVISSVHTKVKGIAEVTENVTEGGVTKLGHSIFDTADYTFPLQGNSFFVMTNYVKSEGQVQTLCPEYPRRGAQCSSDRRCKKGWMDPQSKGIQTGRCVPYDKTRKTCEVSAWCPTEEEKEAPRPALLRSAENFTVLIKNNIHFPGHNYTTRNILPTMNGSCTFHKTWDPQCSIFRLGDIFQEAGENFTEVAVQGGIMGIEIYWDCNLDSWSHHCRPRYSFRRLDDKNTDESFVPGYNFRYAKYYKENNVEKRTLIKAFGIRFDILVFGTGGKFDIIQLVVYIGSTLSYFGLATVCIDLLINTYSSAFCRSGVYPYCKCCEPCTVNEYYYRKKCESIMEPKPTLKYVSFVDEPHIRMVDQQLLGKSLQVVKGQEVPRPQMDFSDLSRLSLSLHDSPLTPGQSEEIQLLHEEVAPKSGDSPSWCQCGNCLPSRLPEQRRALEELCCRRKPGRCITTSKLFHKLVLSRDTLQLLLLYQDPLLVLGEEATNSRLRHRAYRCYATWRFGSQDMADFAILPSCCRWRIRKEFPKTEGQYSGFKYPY
Experimental: Cells were grown in a humidified incubator at 37°C in an atmosphere supplemented with 5% CO2. […] HEK293mP2X7 were cultured in DMEM under similar conditions as described above, but containing 100 μg/ml zeocin (Invitrogen). […] Expression of the transgene was induced by supplementing the medium with 1 μg/ml tetracycline (Sigma-Aldrich, Taufkirchen, Germany) 24 h prior to the experiments. All fluorometric Ca^2+ assays in cell suspensions were performed in 384-microwell plates (Corning, No. 3655, Lowell, MA, USA) with a fluorescence-imaging microplate reader (POLARstar Omega, BMG Labtech, Offenburg, Germany) (for details, see [61, 68]). […] Microwell plates were repetitively scanned every 16 s in the fast scanning mode of the device. […] Data were normalized to the baseline values before ATP application (F/F0). […] ATP-solution was freshly prepared in Mg^2+-free HBS solution and adjusted to pH 7.4. Aliquots of stock solutions were stored at -20°C and freshly diluted with the appropriate HBS solution. […] Results are expressed as mean ± SEM. […] In the PTZ-T, the number of animals in the group with clonic seizures and the latency time were analysed using Fisher's exact probability test and the Mann-Whitney rank sum test, respectively. For multiple comparisons of the latency time a one-way ANOVA with the Holm-Sidak post hoc test was used. The influence of AFC on the plasma and brain concentrations of the antiepileptic drugs was statistical compared using the same procedure. In the PTZ-kindling model, the mean seizure stage within a group was calculated in relation to the number of PTZ-injections. Statistical comparison between vehicle- and compound-treated groups in this model was performed with two-way repeated measures ANOVA, followed by the Holm-Sidak post hoc test. […] In fully kindled rats, the calculated mean seizure stage within a group after vehicle- and compound-treatment were compared using a paired t-test. P < 0.05 was the accepted minimum level of significance.

PTZ-induced kindling = PTZ-induced kindling development; assay type: in vivo, rats; conditions: for mean seizure stages after 8-day treatment-free interval (21st-25th PTZ-injection, vehicle only): rats formerly treated with TIIAS 30, BBG 50, AFC 30 mg/kg i.p. or JNJ 15 mg/kg s.c.; for mean number of PTZ-injections needed to produce the first generalized seizure (≥ stage 3) vs vehicle / effect on PTZ-kindling development (mean seizure stages): rats; for mean number of PTZ-injections needed to produce the first generalized seizure (≥ stage 3) vs vehicle: TIIAS 30, BBG 50, AFC 30 mg/kg i.p., JNJ 15 mg/kg s.c.; for effect on PTZ-kindling development (mean seizure stages): TIIAS 30 and BBG 50 mg/kg i.p. 45 min, AFC 30 mg/kg i.p. 45 min, JNJ 15 mg/kg s.c. 30 min before each PTZ 35 mg/kg i.p., every 48 h, 20 injections
Experimental: For PTZ-kindling, the initial sub-convulsive dose of PTZ (35 mg/kg) was injected i.p. once every 48 h (on Monday, Wednesday, and Friday, three times a week). After vehicle or vehicle/compound pre-treatment, PTZ was injected and the rats were individually observed for 30 min. Behavioural seizure responses were scored according to a defined graduation from stage 0 to stage 5. […] Rats received 20 successive PTZ-kindling stimulations. After an 8-day treatment-free interval, the animals were re-tested with PTZ (21st-25th injection) and vehicle pre-treatment without the compounds. […] Additional care was taken the hours following generalized tonic-clonic seizures and status epilepticus by providing the animals with soft food pellets and tap water if required. All efforts were made to minimize suffering. […] Chemicals, Toronto, Canada) was slowly added. The pH was adjusted with 1N NaOH (similar amount of NaOH as HCl), all with continuous stirring. […] The drug solutions or suspensions were prepared immediately before use; all doses refer to the salts. Animals in the control group received equivalent volumes of the vehicle (in mice always 10 ml/kg, in rats 1 ml/kg [JNJ], 3 ml/kg [AFC] or 4 ml/kg [BBG, TIIAS], depending on the solubility of the different compounds). Doses and peak time effects were selected on the basis of effective doses from corresponding in vivo studies in the literature: BBG (e.g.), tanshinone IIA (e.g.) and from manufacturer's experimental data: AFC, JNJ (see, [80]). Data were analysed using SigmaPlot (vers. 12.0, Systat Software, Erkrath, Germany) and SPSS (IBM SPSS Statistics 20, […], Germany), respectively. Results are expressed as mean ± SEM. […] In the MES-T, the current intensity inducing tonic hindlimb extensions in 50% of the mice (CC50 values with confidence limits for 95% probability) and the statistical significance was calculated using Probit analysis (SPSS). […] In the PTZ-T, the number of animals in the group with clonic seizures and the latency time were analysed using Fisher's exact probability test and the Mann-Whitney rank sum test, respectively. For multiple comparisons of the latency time a one-way ANOVA with the Holm-Sidak post hoc test was used. The influence of AFC on the plasma and brain concentrations of the antiepileptic drugs was statistical compared using the same procedure. In the PTZ-kindling model, the mean seizure stage within a group was calculated in relation to the number of PTZ-injections. Statistical comparison between vehicle- and compound-treated groups in this model was performed with two-way repeated measures ANOVA, followed by the Holm-Sidak post hoc test. The mean number of PTZ-injections needed to produce the first generalized seizure (≥ stage 3 convulsions) in the vehicle- versus compound-treated groups was statistically compared using a Mann-Whitney rank sum test. In fully kindled rats, the calculated mean seizure stage within a group after vehicle- and compound-treatment were compared using a paired t-test. P < 0.05 was the accepted minimum level of significance.

SMILES	IC50 (mouse P2X7R) [nM]	mean seizure stages after 8-day treatment-free interval (21st-25th PTZ-injection, vehicle only) (PTZ-induced kindling)	mean number of PTZ-injections needed to produce the first generalized seizure (≥ stage 3) vs vehicle (PTZ-induced kindling)	effect on PTZ-kindling development (mean seizure stages) (PTZ-induced kindling)
Cc1c(S(=O)(=O)[O-])oc2c1C(=O)C(=O)c1c-2ccc2c1CCCC2(C)C.[Na+] [Tanshinone TIIAS, tanshinone IIS sulfonic sodium]	≥ 6000	no differences of the mean seizure stages	required significantly more PTZ-injections	moderate, yet significant retarding effect on kindling development
CCOc1ccc(Nc2ccc(/C(=C3C=C/C(=[N+](/CC)Cc4cccc(S(=O)(=O)[O-])c4)C=C/3C)c3ccc(N(CC)Cc4cccc(S(=O)(=O)O)c4)cc3C)cc2)cc1 [Brilliant Blue G]	530 ± 150	no differences of the mean seizure stages	required significantly more PTZ-injections	moderate, yet significant retarding effect on kindling development
O=C(NCC1(N2CCN(c3ccccc3)CC2)CCOCC1)c1cccnc1Sc1ccccc1 [JNJ-47965567, N-[[4-(4-phenyl-piperazin-1-yl)tetrahydro-2H-pyran-4-yl]-methyl]-2-(phenyl-thio) nicotinamide]	10 ± 1	persisted after compound treatment ceased	required significantly more PTZ-injections	significantly reduced the PTZ-kindling development
